Laboratory results: paper PMC11213733, “Computational approaches identify a transcriptomic fingerprint of drug-induced structural cardiotoxicity” (Cell Biology and Toxicology, 2024)
Like-named read-outs stand apart in the source and are kept apart here.

Columns and labels:
cardiac microtissues [1] = experiment: Targeted qRT-PCR of ATAD3C, CDH13, IL6, PTX3, SLC7A5, UCHL1 in cardiac microtissues; format: cell-based, human; settings: Sorafenib 3.74 µM, Sunitinib 3.53 µM, Dasatinib 10.8 µM; for activity at 3.53 µM: Homo sapiens, read-out: % of control
Description: The experiment was performed with three technical replicates across 1-2 independent replicates.

cardiac microtissues [2] = experiment: Transcriptomic profiling (mRNA-seq) and DESeq2 differential gene expression analysis in cardiac microtissues; settings: absolute log2(Fold-Change) > 1, FDR p ≤ 0.05
[3] = ref FDA label, cited from earlier work
cardiac microtissues [4] = experiment: Ingenuity Pathway Analysis over-representation of differentially expressed genes (activation Z-score); format: cell-based, human; settings: 48hr high; Group 2
cardiac microtissues [5] = experiment: ATP depletion (CellTiter Glo Luminescent Cell Viability Assay) in cardiac microtissues; format: cell-based, human; settings: the concentration is the IC30 of ATP depletion, or cell death caused
Description: Cellular ATP concentrations were also assessed using the CellTiter Glo® Luminescent Cell Viability Assay as per the manufacturer’s instructions (Promega).

CCN(CC)CCNC(=O)c1c(C)[nH]c(/C=C2\C(=O)Nc3ccc(F)cc32)c1C [Sunitinib Malate]
activity at 3.53 µM (cardiac microtissues [1]; gene ATAD3C, Run 1): 85.2%
activity at 3.53 µM (cardiac microtissues [1]; gene CDH13, Run 1): 81.7%
activity at 3.53 µM (cardiac microtissues [1]; gene CDH13, Run 2): 32.5%
activity at 3.53 µM (cardiac microtissues [1]; gene IL6, Run 1): 18.3%
activity at 3.53 µM (cardiac microtissues [1]; gene IL6, Run 2): 3.18%
activity at 3.53 µM (cardiac microtissues [1]; gene PTX3, Run 1): 46.8%
activity at 3.53 µM (cardiac microtissues [1]; gene PTX3, Run 2): 18.6%
activity at 3.53 µM (cardiac microtissues [1]; gene SLC7A5, Run 1): 87.2%
activity at 3.53 µM (cardiac microtissues [1]; gene SLC7A5, Run 2): 7.07%
activity at 3.53 µM (cardiac microtissues [1]; gene UCHL1, Run 1): 59.4%
activity at 3.53 µM (cardiac microtissues [1]; gene UCHL1, Run 2): 18.6%
2^-ΔΔCt of Individual reps, Treated 1 (cardiac microtissues [1]; gene ATAD3C, Run 1): 0.6771
2^-ΔΔCt of Individual reps, Treated 2 (cardiac microtissues [1]; gene ATAD3C, Run 1): 0.9498
2^-ΔΔCt of Individual reps, Treated 3 (cardiac microtissues [1]; gene ATAD3C, Run 1): 0.9298
Average 2^-ΔΔCt, Treated (cardiac microtissues [1]; gene ATAD3C, Run 1): 0.8522
2^-ΔΔCt of Individual reps, Treated 1 (cardiac microtissues [1]; gene CDH13, Run 1): 0.8001
2^-ΔΔCt of Individual reps, Treated 2 (cardiac microtissues [1]; gene CDH13, Run 1): 0.8203
2^-ΔΔCt of Individual reps, Treated 3 (cardiac microtissues [1]; gene CDH13, Run 1): 0.8552
Average 2^-ΔΔCt, Treated (cardiac microtissues [1]; gene CDH13, Run 1): 0.8252
2^-ΔΔCt of Individual reps, Treated 1 (cardiac microtissues [1]; gene CDH13, Run 2): 0.3506
2^-ΔΔCt of Individual reps, Treated 2 (cardiac microtissues [1]; gene CDH13, Run 2): 0.356
2^-ΔΔCt of Individual reps, Treated 3 (cardiac microtissues [1]; gene CDH13, Run 2): 0.3542
Average 2^-ΔΔCt, Treated (cardiac microtissues [1]; gene CDH13, Run 2): 0.3536
2^-ΔΔCt of Individual reps, Treated 1 (cardiac microtissues [1]; gene IL6, Run 1): 0.1962
2^-ΔΔCt of Individual reps, Treated 2 (cardiac microtissues [1]; gene IL6, Run 1): 0.1722
2^-ΔΔCt of Individual reps, Treated 3 (cardiac microtissues [1]; gene IL6, Run 1): 0.1837
Average 2^-ΔΔCt, Treated (cardiac microtissues [1]; gene IL6, Run 1): 0.184
2^-ΔΔCt of Individual reps, Treated 1 (cardiac microtissues [1]; gene IL6, Run 2): 0.1296
2^-ΔΔCt of Individual reps, Treated 2 (cardiac microtissues [1]; gene IL6, Run 2): 0.008
2^-ΔΔCt of Individual reps, Treated 3 (cardiac microtissues [1]; gene IL6, Run 2): 0.00254
Average 2^-ΔΔCt, Treated (cardiac microtissues [1]; gene IL6, Run 2): 0.04671
2^-ΔΔCt of Individual reps, Treated 1 (cardiac microtissues [1]; gene PTX3, Run 1): 0.5127
2^-ΔΔCt of Individual reps, Treated 2 (cardiac microtissues [1]; gene PTX3, Run 1): 0.4851
2^-ΔΔCt of Individual reps, Treated 3 (cardiac microtissues [1]; gene PTX3, Run 1): 0.4283
Average 2^-ΔΔCt, Treated (cardiac microtissues [1]; gene PTX3, Run 1): 0.4754
2^-ΔΔCt of Individual reps, Treated 1 (cardiac microtissues [1]; gene PTX3, Run 2): 0.364
2^-ΔΔCt of Individual reps, Treated 2 (cardiac microtissues [1]; gene PTX3, Run 2): 0.159
2^-ΔΔCt of Individual reps, Treated 3 (cardiac microtissues [1]; gene PTX3, Run 2): 0.09578
Average 2^-ΔΔCt, Treated (cardiac microtissues [1]; gene PTX3, Run 2): 0.2063
2^-ΔΔCt of Individual reps, Treated 1 (cardiac microtissues [1]; gene SLC7A5, Run 1): 0.9373
2^-ΔΔCt of Individual reps, Treated 2 (cardiac microtissues [1]; gene SLC7A5, Run 1): 0.8504
2^-ΔΔCt of Individual reps, Treated 3 (cardiac microtissues [1]; gene SLC7A5, Run 1): 0.8586
Average 2^-ΔΔCt, Treated (cardiac microtissues [1]; gene SLC7A5, Run 1): 0.8821
2^-ΔΔCt of Individual reps, Treated 1 (cardiac microtissues [1]; gene SLC7A5, Run 2): 0.1881
2^-ΔΔCt of Individual reps, Treated 2 (cardiac microtissues [1]; gene SLC7A5, Run 2): 0.06312
2^-ΔΔCt of Individual reps, Treated 3 (cardiac microtissues [1]; gene SLC7A5, Run 2): 0.06588
Average 2^-ΔΔCt, Treated (cardiac microtissues [1]; gene SLC7A5, Run 2): 0.1057
2^-ΔΔCt of Individual reps, Treated 1 (cardiac microtissues [1]; gene UCHL1, Run 1): 0.6206
2^-ΔΔCt of Individual reps, Treated 2 (cardiac microtissues [1]; gene UCHL1, Run 1): 0.6021
2^-ΔΔCt of Individual reps, Treated 3 (cardiac microtissues [1]; gene UCHL1, Run 1): 0.5702
Average 2^-ΔΔCt, Treated (cardiac microtissues [1]; gene UCHL1, Run 1): 0.5976
2^-ΔΔCt of Individual reps, Treated 1 (cardiac microtissues [1]; gene UCHL1, Run 2): 0.3214
2^-ΔΔCt of Individual reps, Treated 2 (cardiac microtissues [1]; gene UCHL1, Run 2): 0.1175
2^-ΔΔCt of Individual reps, Treated 3 (cardiac microtissues [1]; gene UCHL1, Run 2): 0.1882
Average 2^-ΔΔCt, Treated (cardiac microtissues [1]; gene UCHL1, Run 2): 0.209
number of significant differentially expressed genes, 6hr high (cardiac microtissues [2]; 6 hr, high concentration): 10
number of significant differentially expressed genes, 6hr low (cardiac microtissues [2]; 6 hr, low concentration): 0
number of significant differentially expressed genes, 48hr high (cardiac microtissues [2]; 48 hr, high concentration): 861
number of significant differentially expressed genes, 48hr low (cardiac microtissues [2]; 48 hr, low concentration): 399
number of significant differentially expressed genes, 72hr high (cardiac microtissues [2]; 72 hr, high concentration): 152
number of significant differentially expressed genes, 72hr low (cardiac microtissues [2]; 72 hr, low concentration): 71
Structural cardiotoxin? ([3]; FDA label references heart failure or a decrease in left ventricular ejection fraction): Y
Functional cardiotoxin? ([3]; compound annotation): Y
activation Z-score: Actin Cytoskeleton Signaling (cardiac microtissues [4]): -3.317
activation Z-score: Actin Nucleation by ARP-WASP Complex (cardiac microtissues [4]): -2.646
activation Z-score: Acute Phase Response Signaling (cardiac microtissues [4]): -2.84
activation Z-score: Adrenomedullin signaling pathway (cardiac microtissues [4]): -2.53
activation Z-score: Apelin Cardiac Fibroblast Signaling Pathway (cardiac microtissues [4]): 2.236
activation Z-score: Apelin Liver Signaling Pathway (cardiac microtissues [4]): -2.449
activation Z-score: Aryl Hydrocarbon Receptor Signaling (cardiac microtissues [4]): -0.632
activation Z-score: Breast Cancer Regulation by Stathmin1 (cardiac microtissues [4]): -3
activation Z-score: CD40 Signaling (cardiac microtissues [4]): -2
activation Z-score: CLEAR Signaling Pathway (cardiac microtissues [4]): -0.5
activation Z-score: Cardiac Hypertrophy Signaling (Enhanced) (cardiac microtissues [4]): -3.53
activation Z-score: Cell Cycle: G2/M DNA Damage Checkpoint Regulation (cardiac microtissues [4]): -3
activation Z-score: Colorectal Cancer Metastasis Signaling (cardiac microtissues [4]): -3.578
activation Z-score: Cyclins and Cell Cycle Regulation (cardiac microtissues [4]): 2.333
activation Z-score: ERK5 Signaling (cardiac microtissues [4]): -2
activation Z-score: Endothelin-1 Signaling (cardiac microtissues [4]): -2.496
activation Z-score: G-Protein Coupled Receptor Signaling (cardiac microtissues [4]): -3.212
activation Z-score: GP6 Signaling Pathway (cardiac microtissues [4]): -4.123
activation Z-score: Glioblastoma Multiforme Signaling (cardiac microtissues [4]): -2.333
activation Z-score: HGF Signaling (cardiac microtissues [4]): -2.333
activation Z-score: HIF1Î± Signaling (cardiac microtissues [4]): -3.464
activation Z-score: HMGB1 Signaling (cardiac microtissues [4]): -3.357
activation Z-score: Hepatic Fibrosis Signaling Pathway (cardiac microtissues [4]): -4.768
activation Z-score: IL-6 Signaling (cardiac microtissues [4]): -2.309
activation Z-score: IL-8 Signaling (cardiac microtissues [4]): -3.051
activation Z-score: IL-13 Signaling Pathway (cardiac microtissues [4]): -2.496
activation Z-score: IL-15 Production (cardiac microtissues [4]): -2.449
activation Z-score: ILK Signaling (cardiac microtissues [4]): -3.357
activation Z-score: Immunogenic Cell Death Signaling Pathway (cardiac microtissues [4]): -2.646
activation Z-score: Inhibition of Angiogenesis by TSP1 (cardiac microtissues [4]): -2
activation Z-score: Integrin Signaling (cardiac microtissues [4]): -3.606
activation Z-score: Intrinsic Prothrombin Activation Pathway (cardiac microtissues [4]): -2
activation Z-score: Kinetochore Metaphase Signaling Pathway (cardiac microtissues [4]): 3.266
activation Z-score: LXR/RXR Activation (cardiac microtissues [4]): 0.905
activation Z-score: Leukocyte Extravasation Signaling (cardiac microtissues [4]): -2.065
activation Z-score: MIF Regulation of Innate Immunity (cardiac microtissues [4]): -2
activation Z-score: MYC Mediated Apoptosis Signaling (cardiac microtissues [4]): -1.633
activation Z-score: Macrophage Alternative Activation Signaling Pathway (cardiac microtissues [4]): -2.558
activation Z-score: Oncostatin M Signaling (cardiac microtissues [4]): -2.236
activation Z-score: Osteoarthritis Pathway (cardiac microtissues [4]): -2.711
activation Z-score: Oxytocin Signaling Pathway (cardiac microtissues [4]): -2.324
activation Z-score: PAK Signaling (cardiac microtissues [4]): -2.236
activation Z-score: PPAR Signaling (cardiac microtissues [4]): 2.646
activation Z-score: Pancreatic Adenocarcinoma Signaling (cardiac microtissues [4]): -2.121
activation Z-score: Paxillin Signaling (cardiac microtissues [4]): -2
activation Z-score: Production of Nitric Oxide and Reactive Oxygen Species in Macrophages (cardiac microtissues [4]): -3.051
activation Z-score: Prostanoid Biosynthesis (cardiac microtissues [4]): -2
activation Z-score: Pulmonary Fibrosis Idiopathic Signaling Pathway (cardiac microtissues [4]): -5.692
activation Z-score: Pulmonary Healing Signaling Pathway (cardiac microtissues [4]): -2.449
activation Z-score: Pyridoxal 5'-phosphate Salvage Pathway (cardiac microtissues [4]): 1.342
activation Z-score: RAC Signaling (cardiac microtissues [4]): -1.89
activation Z-score: RHOGDI Signaling (cardiac microtissues [4]): 3.606
activation Z-score: Regulation Of The Epithelial Mesenchymal Transition By Growth Factors Pathway (cardiac microtissues [4]): -4.243
activation Z-score: Regulation of Cellular Mechanics by Calpain Protease (cardiac microtissues [4]): -2.236
activation Z-score: Regulation of eIF4 and p70S6K Signaling (cardiac microtissues [4]): -1.342
activation Z-score: Renin-Angiotensin Signaling (cardiac microtissues [4]): -2.449
activation Z-score: Ribonucleotide Reductase Signaling Pathway (cardiac microtissues [4]): -1.291
activation Z-score: Role of JAK family kinases in IL-6-type Cytokine Signaling (cardiac microtissues [4]): -2.668
activation Z-score: Role of NFAT in Cardiac Hypertrophy (cardiac microtissues [4]): -3.162
activation Z-score: STAT3 Pathway (cardiac microtissues [4]): -1.414
activation Z-score: Salvage Pathways of Pyrimidine Ribonucleotides (cardiac microtissues [4]): 1.134
activation Z-score: Senescence Pathway (cardiac microtissues [4]): -3.3
activation Z-score: Signaling by Rho Family GTPases (cardiac microtissues [4]): -3.638
activation Z-score: TREM1 Signaling (cardiac microtissues [4]): -2.646
activation Z-score: Type II Diabetes Mellitus Signaling (cardiac microtissues [4]): -1.342
activation Z-score: White Adipose Tissue Browning Pathway (cardiac microtissues [4]): -2.714
activation Z-score: Wound Healing Signaling Pathway (cardiac microtissues [4]): -4.964
activation Z-score: iNOS Signaling (cardiac microtissues [4]): -2.236
Transcriptomic high concentration (µM) = IC30 of ATP depletion (cardiac microtissues [5]): 3.53 µM
